Test results from patent US11116735B2, “Use of substituted benzylideneguanidine derivatives as synergists for polymyxin antibiotics” (GUANGZHOU INSIGHTER BIOTECHNOLOGY CO., LTD., priority 2015, dated 2021).
Where “and” joins values, the source holds several entries; their conditions need not be identical. Equal entries are not always repeated.

Columns and labels:
weanling piglets [1] = experiment: Synergy of compound 3 and colistin sulfate in the feed for weanling piglets; format: in vivo, Duroc×Landrace×Large crossbred lean weanling piglets; details: weanling piglets, only 20 ppm colistin sulfate in creep feed (Control 1, groups 4-6), ten days
Experimental: (§1) 120 28-day-aged Duroc×Landrace×Large crossbred lean weanling piglets similar in weight were divided into 12 groups, 10 piglets in each group. For each group, colistin sulfate and/or compound 3 were added into the antibiotic-free creep feed. The piglets were given ad libitum access to feed and water during the experiment. Weight gain, feed efficiency and diarrhea rate of each group within ten days were recorded.

E. coli 5F-1 [2] = experiment: MIC by doubling dilution, colistin sulfate-resistant E. coli 5F-1; details: E. coli 5F-1, colistin sulfate-resistant; substance alone; derivatives as hydrochlorides
Experimental: (§3) In vitro minimum inhibitory concentrations of colistin sulfate against the strains where the cultures respectively comprised 20.0 ppm of the substituted benzylideneguanidine derivatives were also measured.

E. coli 3Y-9 = experiment: MIC by doubling dilution, colistin sulfate-susceptible E. coli 3Y-9; format: cell-based, Escherichia coli; details: E. coli 3Y-9, colistin sulfate-susceptible; substance alone; derivatives as hydrochlorides
[3] = test system: colistin sulfate-susceptible Escherichia coli strains; experiment: MIC by doubling dilution, summary over colistin sulfate-susceptible strains; format: cell-based; details: bound that characterises the tested susceptible E. coli strains
[4] = test system: various colistin sulfate-resistant Gram-negative bacteria; experiment: MIC by doubling dilution, summary over resistant species; details: bound that characterises the tested resistant strains
Experimental: (§4) The compound 3 in this embodiment was in the form of a hydrochloride, i.e., the experiments were carried out with a hydrochloride of compound 3.
(§5) In vitro minimum inhibitory concentrations of colistin sulfate against the strains where the cultures respectively comprised various concentrations of compound 3 were also measured.

E. coli 3H-4 = experiment: MIC by doubling dilution, colistin sulfate-resistant E. coli 3H-4; details: E. coli 3H-4, colistin sulfate-resistant; substance alone; derivatives as hydrochlorides
Experimental: as §3

E. coli 2G-7 = experiment: MIC by doubling dilution, colistin sulfate-resistant E. coli 2G-7; details: E. coli 2G-7, colistin sulfate-resistant; substance alone; derivatives as hydrochlorides
Experimental: as §3

Shigella sp. 2D89 = experiment: MIC, resistance reversal by various concentrations of compound 3, Shigella sp. 2D89; details: colistin sulfate with 0 ppm compound 3, or compound 3 (hydrochloride) in the absence of colistin sulfate
Experimental: as §4, §5

E. coli 3B-24 = experiment: MIC by doubling dilution, colistin sulfate-susceptible E. coli 3B-24; format: cell-based, Escherichia coli; details: E. coli 3B-24, colistin sulfate-susceptible; substance alone; derivatives as hydrochlorides
E. coli 2S-19 = experiment: MIC by doubling dilution, colistin sulfate-susceptible E. coli 2S-19; format: cell-based, Escherichia coli; details: E. coli 2S-19, colistin sulfate-susceptible; substance alone; derivatives as hydrochlorides
[5] = test system: fast-growing yellow feather broilers; experiment: Combined application of compound 3 and colistin sulfate in chicken feed; format: in vivo; details: broilers, 50 ppm colistin sulfate in feed, 28-day experiment
Experimental: (§2) 800 1-day-aged fast-growing yellow feather broilers were divided into 4 groups, 4 parallels in each group and 50 broilers in each parallel. For each group, colistin sulfate and/or compound 3 were added into the feed. The chicken were kept in cages and given ad libitum access to feed and water during a 28-day experiment. Synergy of compound 3 and colistin sulfate on the chicken in the weight gain and feed efficiency was observed from the result (see Table 10).

[6] = test system: colistin sulfate-resistant E. coli strains; experiment: MIC by doubling dilution, summary over colistin sulfate-resistant strains; details: bound that characterises the tested resistant E. coli strains
Experimental: as §3

cherry valley ducks = experiment: Combined application of compound 3 and colistin sulfate in duck feed; format: in vivo; details: 40 ppm colistin sulfate in feed, 21-day experiment
Experimental: as §2, with “cherry valley ducks” for “fast-growing yellow feather broilers”, “groups according to Table 10,” for “groups,”, “ducks” for “broilers”, “ducks” for “chicken”, “21-day” for “28-day”, “11).” for “10).”

E. coli 5W-7 = experiment: MIC by doubling dilution, colistin sulfate-susceptible E. coli 5W-7; format: cell-based, Escherichia coli; details: E. coli 5W-7, colistin sulfate-susceptible; substance alone; derivatives as hydrochlorides
weanling piglets [7] = experiment: Compound 3 in various dosages and colistin sulfate in the feed for weanling piglets; format: in vivo, Duroc×Landrace×Large crossbred lean weanling piglets; details: weanling piglets, only 20 ppm colistin sulfate in creep feed (control group), ten days
Experimental: as §1, with “90” for “120”, “9” for “12”, “and/or various dosages of” for “and/or”

E. coli 4D-6 = experiment: MIC by doubling dilution, colistin sulfate-resistant E. coli 4D-6; details: E. coli 4D-6, colistin sulfate-resistant; substance alone; derivatives as hydrochlorides
Experimental: as §3

weanling piglets [8] = experiment: Synergy of derivatives and colistin sulfate in the feed for weanling piglets; format: in vivo, Duroc×Landrace×Large crossbred lean weanling piglets; details: creep feed with only 20 ppm colistin sulfate (control group), ten days
Experimental: as §1, with “90” for “120”, “9” for “12”, “various substituted benzylideneguanidine derivatives” for “compound 3”

P. aeruginosa E543 = experiment: MIC, resistance reversal by various concentrations of compound 3, P. aeruginosa E543; details: colistin sulfate with 0 ppm compound 3, or compound 3 (hydrochloride) in the absence of colistin sulfate
Experimental: as §4, §5

Klebsiella sp. 4125 = experiment: MIC, resistance reversal by various concentrations of compound 3, Klebsiella sp. 4125; details: colistin sulfate with 0 ppm compound 3, or compound 3 (hydrochloride) in the absence of colistin sulfate
Experimental: as §4, §5

E. coli 5F-1 [9] = experiment: MIC, resistance reversal by various concentrations of compound 3, E. coli 5F-1; details: colistin sulfate with 0 ppm compound 3, or compound 3 (hydrochloride) in the absence of colistin sulfate
Experimental: as §4, §5

colistin sulfate [reference compound]
Average daily weight gain (weanling piglets [1]): 215 g and 208 g and 217 g
Diarrhea rate (weanling piglets [1]): 31% and 29% and 33%
Feed conversion ratio (weanling piglets [1]): 1.654 and 1.598 and 1.623
In vitro minimum inhibitory concentration (MIC) of the substance alone (E. coli 5F-1 [2]): 128 ppm and 128.0 ppm
In vitro minimum inhibitory concentration (MIC) of the substance alone (E. coli 3Y-9): 2.0 ppm and 2.00 ppm
MIC value of colistin sulfate against the susceptible strains [3]: lower than 4.0 ppm
MIC value of colistin sulfate against the resistant Gram-negative bacteria [4]: higher than 4.0 ppm
In vitro minimum inhibitory concentration (MIC) of the substance alone (E. coli 3H-4): 64 ppm and 64.0 ppm
In vitro minimum inhibitory concentration (MIC) of the substance alone (E. coli 2G-7): 64 ppm and 64.0 ppm
In vitro MIC of the substance alone (Shigella sp. 2D89): 32.00 ppm
In vitro minimum inhibitory concentration (MIC) of the substance alone (E. coli 3B-24): 2.0 ppm and 2.00 ppm
In vitro minimum inhibitory concentration (MIC) of the substance alone (E. coli 2S-19): 2.0 ppm and 2.00 ppm
Average daily weight gain [5]: 39.8 g
Feed conversion ratio [5]: 1.965
Survival rate [5]: 100%
MIC value of colistin sulfate against the resistant strains [6]: higher than 4.0 ppm
Average daily weight gain (cherry valley ducks): 50.1 g
Feed conversion ratio (cherry valley ducks): 1.945
Survival rate (cherry valley ducks): 100%
In vitro minimum inhibitory concentration (MIC) of the substance alone (E. coli 5W-7): 1.0 ppm and 1.00 ppm
Average daily weight gain (weanling piglets [7]): 211 g
Diarrhea rate (weanling piglets [7]): 33%
Feed conversion ratio (weanling piglets [7]): 1.672
In vitro minimum inhibitory concentration (MIC) of the substance alone (E. coli 4D-6): 256 ppm and 256.0 ppm
Average daily weight gain (weanling piglets [8]): 219 g
Diarrhea rate (weanling piglets [8]): 33%
Feed conversion ratio (weanling piglets [8]): 1.649
In vitro MIC of the substance alone (P. aeruginosa E543): 64.00 ppm
In vitro MIC of the substance alone (Klebsiella sp. 4125): 64.00 ppm
In vitro MIC of the substance alone (E. coli 5F-1 [9]): 128.00 ppm
